Columns and labels:
X-ALD cell lines [1] = assay: D3-C26:0 de novo synthesis from D3-C22:0 in intact cells; assay type: cell-based, Human; details: 10 day treatment, 5 X-ALD cell lines
Procedure: (§1) Human skin fibroblasts were obtained from X-ALD patients through the Neurology Outpatient Clinic of the Academic Medical Center. Written informed consent was received from each patient. X-ALD diagnosis was confirmed by VLCFA and ABCD1 mutation analysis. Control fibroblasts were obtained from male anonymous volunteers with written informed consent. Fibroblasts were cultured in Dulbecco's modified Eagle's medium (DMEM) with L-glutamine and 4.5 g/L glucose, supplemented with 10% fetal calf serum, 2.5 mM HEPES, 100 U/ml penicillin and 100 U/ml streptomycin. Cells were cultured at 37° C. in a humidified 5% CO2 atmosphere. All fibroblast cell lines used were tested routinely for mycoplasma. All tests were negative.
The effect of treatment on D3-C26:0 synthesis in intact cells. The effect of certain compounds of the invention on the synthesis of D3-C26:0 from D3-C22:0 was measured in cultured skin fibroblasts from controls and X-ALD patients. Cells were seeded at approximately 40% confluency in T75 flasks in DMEM. The next day, medium was replaced with medium containing 30 μM D3-C22:0 and the assayed compounds at their final concentration. […] Each 72 h, the tissue culture medium and compounds was refreshed. At the end of the experiment cells were harvested and VLCFA analyzed as described (Valianpour et al., Molecular Genetics and Metabolism, 79: 189-196 (2003)).
VLCFA were analyzed by electrospray ionization mass spectrometry (ESI-MS) as described (Valianpour et al., Molecular Genetics and Metabolism, 79: 189-196 (2003)).
5 different X-ALD cell lines were incubated for 6 days with compounds 1, 2, 3, and 4 at 10 μM, 5 mM 4PBA (sodium 4-phenylbutyrate), or 0.1 μM sobetirome. On Day 6, 30 μM D3C22:0 was added to assess the effect of treatment on beta-oxidation and de novo D3C26:0 synthesis. 6 untreated control cells as well as 5 different untreated X-ALD cells were included to allow assessment of the treatment effect. The total set consisted of 41 experiments

X-ALD cell lines [2] = assay: D3-C22:0 (VLCFA) beta-oxidation in intact cells; assay type: cell-based, Human; details: 10 day treatment, 5 X-ALD cell lines
Procedure: as §1
Peroxisomal beta-oxidation activity was measured essentially as described by incubating cells with 30 μM deuterium-labeled C22:0 (D3-C22:0) (Kemp et al., Clinical Chemistry 50: 1824-1826 (2004)). Cells were seeded at approximately 40% confluency in T75 flasks in DMEM. […] At the end of the experiment cells were harvested and VLCFA analyzed as described (Valianpour et al., Molecular Genetics and Metabolism, 79: 189-196 (2003)).
VLCFA were analyzed by electrospray ionization mass spectrometry (ESI-MS) as described (Valianpour et al., Molecular Genetics and Metabolism, 79: 189-196 (2003)). […]

ABCD1−/− mice [3] = assay: Whole blood VLCFA-LPC levels in in vivo model of X-ALD; details: for Mean blood C26:0-LPC level: once daily IP
Procedure: (§2) Male ABCD1−/− mice were developed using the Taconic 129SvEv background strain. Animals were housed 3-4/cage under a 12-hour lighting cycle (7 AM-7 PM light) and controlled temperature (22° C.) in the rodent facility. They were fed standard mouse chow and had access to drinking water ad libitum. Mice were between 2 and 3 months of age at the beginning of each study.
(§3) Mice were injected once daily intraperitoneal with either drug or vehicle. For blood collection, ˜50 μL of blood was obtained by facial vein puncture using a sterile lancet. Blood was collected in a 1.5 ml microcentrifuge tube containing dried dipotassium EDTA and mixed by gentle inversion at least ten times before storing at −20° C. Blood was obtained in this manner following two, four, and six weeks of treatment. Following blood collection at six weeks, animals were sacrificed by cervical dislocation. Additional blood for preparation of plasma was obtained via cardiac puncture, and blood placed in Microtainer tubes. Brain, spinal cord, adrenal glands, testis, and liver were excised and snap frozen in liquid nitrogen for future analyses.

[4] = system: X-ALD fibroblast cell lines; assay: Cell health (proliferation, morphology) of X-ALD fibroblasts incubated with compounds; assay type: cell-based, Human; details: for cell survival (toxicity): 100 μM, both X-ALD cell lines, within 24 hours; for cell health judged by proliferation and morphology: after 72 hours
Procedure: as §1
10 mM stock solutions in DMSO were prepared by weighing the amount of compound (1 and 3 and their respective active metabolites, 2 and 4) as indicated in Table 2. Stock solutions were stored at room temperature in the dark. For each incubation, the amount of tissue culture medium needed was calculated and a stock solution of tissue culture medium with the final concentration of the to-be-tested compound was prepared. Tissue culture medium was removed from the cells, cells were washed once with PBS and the tissue culture medium with the compounds was added. If an experiment lasted longer than three days, the tissue culture medium and compounds were refreshed (using a fresh preparation) after three days until the end of the experiment.
Two different X-ALD fibroblast cell lines were incubated in duplicate with four compounds at three dosages as highlighted in Table 3.
4 X-ALD cell lines were incubated with 10 μM of 4 compounds 1, 2, 3, and 4. The effect of treatment on ABCD2 expression was analyzed at day 3 and day 10. For the 10 day incubation, tissue culture medium and compounds were refreshed at day 3 and day 6.

ABCD1−/− mice [5] = assay: Plasma VLCFA-LPC levels in in vivo model of X-ALD
Procedure: as §2, §3
During the second cohort study, blood was obtained as described in the Methods section. At the six week time point sufficient blood was collected to permit plasma VLCFA analyses at weeks two, four and six. Plasma is considered by many to be a more reliable measurement of VLCFA levels, because of reduced analytical interference from other analytes, as well as reduced variability of the measurements.

[6] = second cohort, week 6, p<0.0001

O=C([O-])CCCc1ccccc1.[Na+] [Compound 4PBA, sodium 4-phenylbutyrate]
VLCFA (D3C26:0) de novo synthesis (X-ALD cell lines [1]; 5 mM): near normal levels | VLCFA beta-oxidation restored (X-ALD cell lines [2]; 5 mM): ~50 % of controls

Cc1cc(OCP(=O)(OCOC(=O)C(C)(C)C)OCOC(=O)C(C)(C)C)cc(C)c1Cc1ccc(O)c(Cc2ccccc2)c1 [Compound 3]
reduction in whole blood C26:0-LPC levels relative to vehicle controls (ABCD1−/− mice [3]; initial cohort, after six week treatment, p<0.0001): 40% | Mean blood C26:0-LPC level (ABCD1−/− mice [3]; initial cohort, week 2): 0.262 µM | Mean blood C26:0-LPC level (ABCD1−/− mice [3]; initial cohort, week 4): 0.276 µM | Mean blood C26:0-LPC level (ABCD1−/− mice [3]; initial cohort, week 6): 0.356 µM | Difference in Mean Change from Baseline, blood C26:0-LPC (ABCD1−/− mice [3]; initial cohort, week 2): -0.052 µM | % Difference versus Vehicle, blood C26:0-LPC (ABCD1−/− mice [3]; initial cohort, week 2, p NS): 0% | Difference in Mean Change from Baseline, blood C26:0-LPC (ABCD1−/− mice [3]; initial cohort, week 4): -0.081 µM | % Difference versus Vehicle, blood C26:0-LPC (ABCD1−/− mice [3]; initial cohort, week 4, p NS): −11% | Difference in Mean Change from Baseline, blood C26:0-LPC (ABCD1−/− mice [3]; initial cohort, week 6): -0.188 µM | % Difference versus Vehicle, blood C26:0-LPC (ABCD1−/− mice [3]; initial cohort, week 6, p<0.0001): −40% | reduction in whole blood C26:0-LPC levels (change from baseline) (ABCD1−/− mice [3]; second cohort, daily IP, six weeks of treatment, FIG. 8): approximately 0.11 μM | Least Squares Mean Change from Baseline Whole Blood C26:0-LPC (ABCD1−/− mice [3]; second cohort, week 2, p NS versus vehicle): -0.021 µM | Least Squares Mean Change from Baseline Whole Blood C26:0-LPC (ABCD1−/− mice [3]; second cohort, week 4, p<0.01 versus vehicle): -0.096 µM | Least Squares Mean Change from Baseline Whole Blood C26:0-LPC (ABCD1−/− mice [3]; second cohort, week 6, p<0.005 versus vehicle): -0.12 µM | reduction in C26:0-LPC relative to vehicle-treated animals (ABCD1−/− mice [3]; second cohort, whole blood, six weeks, p<0.005): 52% | cell survival (toxicity) [4]: dead | cell health judged by proliferation and morphology ([4]; 0.1 or 10 μM): looked healthy | C20:0-, C22:0-, and C24:0-LPC levels (ABCD1−/− mice [5]; after six weeks of treatment): significant reductions | Mean plasma C20:0-LPC level (ABCD1−/− mice [5]; second cohort, week 6): 0.76 µM | Mean plasma C22:0-LPC level (ABCD1−/− mice [5]; second cohort, week 6): 0.20 µM | Mean plasma C24:0-LPC level (ABCD1−/− mice [5]; second cohort, week 6): 1.14 µM | Mean plasma C26:0-LPC level (ABCD1−/− mice [5]; second cohort, week 6): 0.20 µM | % Difference vs. Vehicle, plasma C20:0-LPC (ABCD1−/− mice [5]; [6]): −54% | % Difference vs. Vehicle, plasma C22:0-LPC (ABCD1−/− mice [5]; [6]): −43% | % Difference vs. Vehicle, plasma C26:0-LPC (ABCD1−/− mice [5]; [6]): −29% | % Difference vs. Vehicle, plasma C24:0-LPC (ABCD1−/− mice [5]; second cohort, week 6, p<0.005): −21%

Cc1cc(OC[P@@]2(=O)OCC[C@@H](c3cccc(Cl)c3)O2)cc(C)c1Cc1ccc(O)c(C(C)C)c1 [Compound 1]
reduction in D3C26:0 de novo synthesis (X-ALD cell lines [1]; 10 μM): ~40% | cell survival (toxicity) [4]: dead | cell health judged by proliferation and morphology ([4]; 0.1 or 10 μM): looked healthy

Cc1cc(OCP(=O)(O)O)cc(C)c1Cc1ccc(O)c(Cc2ccccc2)c1 [Compound 4]
cell health judged by proliferation and morphology ([4]; 0.1, 1 or 10 μM): looked healthy

Cc1cc(OCP(=O)(O)O)cc(C)c1Cc1ccc(O)c(C(C)C)c1 [Compound 2]
cell health judged by proliferation and morphology ([4]; 0.1, 1 or 10 μM): looked healthy

Cc1cc(OCC(=O)O)cc(C)c1Cc1ccc(O)c(C(C)C)c1 [sobetirome]
effect on VLCFA de novo synthesis (X-ALD cell lines [1]; 0.1 μM): did not show any beneficial effect | effect on VLCFA beta-oxidation (X-ALD cell lines [2]; 0.1 μM): did not show any beneficial effect
